In brackets after ≈: the same amount, converted by molar mass. Counter-ions that a name gives are not always drawn.
Tests used:
Assay in all cases: Antifungal susceptibility, microbroth dilution MIC
Assay type in all cases: cell-based
Candida albicans = tested on: Candida albicans
Protocol: (§1) The antimicrobial susceptibilities of eleven strains of Candida albicans, two strains of Candida tropicans, and one strain each of Torulopsis glabrata and Cryptococcus neoformans to several representative compounds of the present invention were tested. For comparison, the known antifungal agents amphotericin-B and ketoconazole were also tested. Minimal inhibitory concentrations (MIC's) for each compound were determined using the microbroth dilution technique described by S. Shadomy, et al, "Laboratory Studies with Antifungal Agents: Susceptibility Tests and Bioassays," pp. 991-999 in Manual Clin. Microbiol., 4th Ed., Amer. Soc. For Microbiol., Washington, D.C., 1985. The compounds tested are as follows and the results of the testing appear in the following Table.

Candida tropicans = tested on: Candida tropicans
Protocol: as §1

Cryptococcus neoformans = conditions: strain 1678, 24 hours
Protocol: as §1

Torulopsis glabrata = conditions: Nakaseomyces glabratus; strain 1581; 24 hours
Protocol: as §1

[1] = ATCC10231, 24 h, strain ATCC 10231
[2] = ATCC13803, strain ATCC 13803, 24 hours

Row | Compound | MIC (Candida albicans; 24 h, strain 1570) | MIC (Candida albicans; 24 h, strain 1571) | MIC (Candida albicans; 24 h, strain 1574) | MIC (Candida albicans; 24 h, strain 1575) | MIC (Candida albicans; 24 h, strain 1576) | MIC (Candida albicans; 24 h, strain 1577) | MIC (Candida albicans; 24 h, strain 1578) | MIC (Candida albicans; 24 h, strain 1579) | MIC (Candida albicans; 24 h, strain B4b) | MIC (Candida albicans; 24 h, strain M752) | MIC (Candida albicans; [1]) | MIC (Candida tropicans; [2]) | MIC (Candida tropicans; strain 1573, 24 hours) | MIC (Cryptococcus neoformans) | MIC (Torulopsis glabrata)
1 | CC(C)c1c(Br)c(Br)c(-c2ccc(F)cc2)n1CC[C@@H](O)C[C@@H](O)CC(=O)O (relative stereo) [Compound 1, 3,4-Dibromo-2-(4-fluorophenyl)-β,δ-dihydroxy-5-(1-methylethyl)-1H-pyrrole-1-heptanoic acid, monosodium salt] | 16 µg/mL | 32 µg/mL | 16 µg/mL | 32 µg/mL | 15 µg/mL | 16 µg/mL | 16 µg/mL | 16 µg/mL | 16 µg/mL | 32 µg/mL | 16 µg/mL | 64 µg/mL | 16 µg/mL | 128 µg/mL | 128 µg/mL
2 | CCOC(=O)c1c(Br)c(-c2ccc(F)cc2)n(CC[C@H]2C[C@H](O)CC(=O)O2)c1C(F)(F)F (relative stereo) [Compound 2, trans-4-Bromo-5-(4-fluorophenyl)-1[2-(tetrahydro-4-hydroxy-6-oxo-2H-pyran-2-yl)-ethyl]-2-(trifluoromethyl)-1H-pyrrole-3-carboxylic acid, ethyl ester] | 32 µg/mL (≈ 61.3 µM) | 64 µg/mL (≈ 123 µM) | 32 µg/mL (≈ 61.3 µM) | 32 µg/mL (≈ 61.3 µM) | 32 µg/mL (≈ 61.3 µM) | 32 µg/mL (≈ 61.3 µM) | 32 µg/mL (≈ 61.3 µM) | 32 µg/mL (≈ 61.3 µM) | 16 µg/mL (≈ 30.6 µM) | 32 µg/mL (≈ 61.3 µM) | 16 µg/mL (≈ 30.6 µM) | 64 µg/mL (≈ 123 µM) | 16 µg/mL (≈ 30.6 µM) | 64 µg/mL (≈ 123 µM) | 128 µg/mL (≈ 245 µM)
3 | CC(C)c1c(Cl)c(Cl)c(-c2ccc(F)cc2)n1CC[C@@H](O)C[C@@H](O)CC(=O)O (relative stereo) [Compound 3, 3,4-Dichloro-2-(4-fluorophenyl)-β,δ-hydroxy-5-(1-methylethyl)-1H-pyrrole-1-heptanoic acid, monosodium salt] | 64 µg/mL | 64 µg/mL | 64 µg/mL | 64 µg/mL | 64 µg/mL | 32 µg/mL | 64 µg/mL | 64 µg/mL | 32 µg/mL | 64 µg/mL | 32 µg/mL | 128 µg/mL | 32 µg/mL | 128 µg/mL | 128 µg/mL

Now those with a lower MIC (Candida albicans; 24 h, strain 1570), led by results:

Row | MIC (Candida albicans; 24 h, strain 1570) | MIC (Candida albicans; 24 h, strain 1571) | MIC (Candida albicans; 24 h, strain 1574) | MIC (Candida albicans; 24 h, strain 1575) | MIC (Candida albicans; 24 h, strain 1576) | MIC (Candida albicans; 24 h, strain 1577) | MIC (Candida albicans; 24 h, strain 1578) | MIC (Candida albicans; 24 h, strain 1579) | MIC (Candida albicans; 24 h, strain B4b) | MIC (Candida albicans; 24 h, strain M752) | MIC (Candida albicans; [1]) | MIC (Candida tropicans; [2]) | MIC (Candida tropicans; strain 1573, 24 hours) | MIC (Cryptococcus neoformans) | MIC (Torulopsis glabrata) | Compound
4 | 8 µg/mL (≈ 8.66 µM) | 2 µg/mL (≈ 2.16 µM) | 4 µg/mL (≈ 4.33 µM) | 8 µg/mL (≈ 8.66 µM) | 4 µg/mL (≈ 4.33 µM) | 8 µg/mL (≈ 8.66 µM) | 8 µg/mL (≈ 8.66 µM) | 4 µg/mL (≈ 4.33 µM) | 4 µg/mL (≈ 4.33 µM) | 8 µg/mL (≈ 8.66 µM) | 4 µg/mL (≈ 4.33 µM) | 8 µg/mL (≈ 8.66 µM) | 4 µg/mL (≈ 4.33 µM) | 4 µg/mL (≈ 4.33 µM) | 8 µg/mL (≈ 8.66 µM) | C[C@@H]1[C@H](O)[C@@H](C)/C=C/C=C/C=C/C=C/C=C/C=C/C=C/[C@H](O[C@@H]2O[C@H](C)[C@@H](O)[C@H](N)[C@@H]2O)C[C@@H]2O[C@](O)(C[C@@H](O)C[C@@H](O)[C@H](O)CC[C@@H](O)C[C@@H](O)CC(=O)O[C@H]1C)C[C@H](O)[C@H]2C(=O)O [AMP-B, Amphotericin-B, reference compound]
5 | 0.25 µg/mL (≈ 0.47 µM) | 0.125 µg/mL (≈ 0.235 µM) | 0.25 µg/mL (≈ 0.47 µM) | 0.5 µg/mL (≈ 0.941 µM) | > 0.5 µg/mL | 0.125 µg/mL (≈ 0.235 µM) | 0.25 µg/mL (≈ 0.47 µM) | 0.5 µg/mL (≈ 0.941 µM) | 0.25 µg/mL (≈ 0.47 µM) | 0.25 µg/mL (≈ 0.47 µM) | > 0.5 µg/mL | 0.5 µg/mL (≈ 0.941 µM) | > 0.5 µg/mL | > 0.5 µg/mL | > 0.5 µg/mL | CC(=O)N1CCN(c2ccc(OCC3COC(Cn4ccnc4)(c4ccc(Cl)cc4Cl)O3)cc2)CC1 (stereo not drawn) [Keto, Ketoconazole, reference compound]

Source: patent US4775681A, “Method of treating fungal infections with trans-6-[2-substitutedpyrrol-1-yl)alkyl]-4-hydroxypyran-2-ones” (Warner-Lambert Company, priority 1987, dated 1988)
